Patent publication US20230263822A1, “MODULATION OF FACTOR 11 EXPRESSION” (Ionis Pharmaceuticals, Inc., priority 2008, published 2023)

Assays:
[1] = mouse, in vivo, sc, 50 mg/kg
[2] = Tolerability in CD1 mice: kidney function, BUN (Example 37); details: plasma, 50 mg/kg s.c. twice per week for 6 weeks
Factor 11 protein = Factor 11 protein in monkey plasma by sandwich ELISA (Example 45); type: in vivo, cynomolgus monkeys; details: for Factor 11 protein levels in plasma: cynomolgus monkeys, ELISA; for Inhibition of Factor 11 protein relative to the PBS control: plasma ELISA
Experimental: (§1) Groups, each consisting of two male and three female monkeys, were injected subcutaneously with ISIS 416838, ISIS 416850, ISIS 416858, ISIS 416864, or ISIS 417002 in escalating doses. Antisense oligonucleotide was administered to the monkeys at 5 mg/kg three times per a week for week 1; 5 mg/kg twice per week for weeks 2 and 3; 10 mg/kg three times per week for week 4; 10 mg/kg twice per week for weeks 5 and 6; 25 mg/kg three times per week for week 7; and 25 mg/kg twice per week for weeks 8, 9, 10, 11, and 12. One control group, consisting of two male and three female monkeys, was injected subcutaneously with PBS according to the same dosing regimen. An additional experimental group, consisting of two male and three female monkeys, was injected subcutaneously with ISIS 416850 in a chronic, lower dose regimen. Antisense oligonucleotide was administered to the monkeys at 5 mg/kg three times per week for week 1; 5 mg/kg twice per week for week 2 and 3; 10 mg/kg three times per week for week 4; and 10 mg/kg twice per week for weeks 5 to 12. Body weights were measured weekly. Blood samples were collected 14 days and 5 days before the start of treatment and subsequently once per week for Factor 11 protein activity analysis in plasma, fibrinogen measurement, PT and aPTT measurements, bleeding times, and measurement of various hematologic factors. On day 85, the monkeys were euthanized by exsanguination while under deep anesthesia, and organs harvested for further analysis.
Plasma samples from all monkey groups taken on different days were analyzed by a sandwich-style ELISA assay (Affinity Biologicals Inc.) using an affinity-purified polyclonal anti-Factor 11 antibody as the capture antibody and a peroxidase-conjugated polyclonal anti-Factor 11 antibody as the detecting antibody. Monkey plasma was diluted 1:50 for the assay. Peroxidase activity was expressed by incubation with the substrate o-phenylenediamine. The color produced was quantified using a microplate reader at 490 nm and was considered to be proportional to the concentration of Factor 11 in the samples.
The results are presented in Table 115, expressed as percentage reduction relative to that of the PBS control.

[3] = Tolerability in CD1 mice: liver function (Example 41); details: 50 mg/kg s.c. twice per week for 6 weeks, plasma
[4] = Liver function, ALT, AST, bilirubin in cynomolgus monkeys (Example 45); type: in vivo; details: plasma
Experimental: as §1
The ISIS oligonucleotide, ISIS 416850, given with the chronic dose regimen is distinguished from the other oligonucleotides with an asterisk (*).

[5] = day 15, escalating dose regimen
[6] = day 22, escalating dose regimen
[7] = day 29, escalating dose regimen
[8] = day 36, escalating dose regimen
[9] = day 43, escalating dose regimen
[10] = day 50, escalating dose regimen
[11] = day 57, escalating dose regimen
[12] = day 64, escalating dose regimen
[13] = day 71, escalating dose regimen
[14] = day 78, escalating dose regimen
[15] = day 85, escalating dose regimen
[16] = day −5, escalating dose regimen
[17] = day −14, escalating dose regimen
[18] = day 22, chronic dose regimen (*)
[19] = day 43, chronic dose regimen (*)
[20] = day −14, chronic dose regimen (*)

Substance: ISIS 416850: MOE gapmer, nucleobases 1275 to 1318 of SEQ ID NO: 1 (Table 8) (antisense TGCACAGTTTCTGGCAGGCC; MOE gapmer, wing and gap sizes not given here)
- HCT [1]: 49%
- Lymphocyte [1]: 4004 cells/μL
- Neutrophil [1]: 1144 cells/μL
- Platelets [1]: 916 10^3/μL
- RBC [1]: 10 10^6/μL
- WBC [1]: 5 10^3/μL
- hemoglobin [1]: 15 g/dL
- monocytes [1]: 156 cells/μL
- BUN [2]: 24 mg/dL
- Factor 11 protein levels in plasma (Factor 11 protein; escalating dose regimen): time-dependent decrease in protein levels
- Inhibition of Factor 11 protein relative to the PBS control (Factor 11 protein; day 8, chronic, lower dose regimen (*)): 6%
- Inhibition of Factor 11 protein relative to the PBS control (Factor 11 protein; day 8, escalating dose regimen): 8%
- Inhibition of Factor 11 protein relative to the PBS control (Factor 11 protein; day 15, chronic, lower dose regimen (*)): 13%
- Inhibition of Factor 11 protein relative to the PBS control (Factor 11 protein; [5]): 4%
- Inhibition of Factor 11 protein relative to the PBS control (Factor 11 protein; day 22, chronic, lower dose regimen (*)): 12%
- Inhibition of Factor 11 protein relative to the PBS control (Factor 11 protein; [6]): 11%
- Inhibition of Factor 11 protein relative to the PBS control (Factor 11 protein; day 29, chronic, lower dose regimen (*)): 20%
- Inhibition of Factor 11 protein relative to the PBS control (Factor 11 protein; [7]): 15%
- Inhibition of Factor 11 protein relative to the PBS control (Factor 11 protein; day 36, chronic, lower dose regimen (*)): 22%
- Inhibition of Factor 11 protein relative to the PBS control (Factor 11 protein; [8]): 17%
- Inhibition of Factor 11 protein relative to the PBS control (Factor 11 protein; day 43, chronic, lower dose regimen (*)): 24%
- Inhibition of Factor 11 protein relative to the PBS control (Factor 11 protein; [9]): 23%
- Inhibition of Factor 11 protein relative to the PBS control (Factor 11 protein; day 50, chronic, lower dose regimen (*)): 30%
- Inhibition of Factor 11 protein relative to the PBS control (Factor 11 protein; [10]): 42%
- Inhibition of Factor 11 protein relative to the PBS control (Factor 11 protein; day 57, chronic, lower dose regimen (*)): 34%
- Inhibition of Factor 11 protein relative to the PBS control (Factor 11 protein; [11]): 49%
- Inhibition of Factor 11 protein relative to the PBS control (Factor 11 protein; day 64, chronic, lower dose regimen (*)): 37%
- Inhibition of Factor 11 protein relative to the PBS control (Factor 11 protein; [12]): 55%
- Inhibition of Factor 11 protein relative to the PBS control (Factor 11 protein; day 71, chronic, lower dose regimen (*)): 41%
- Inhibition of Factor 11 protein relative to the PBS control (Factor 11 protein; [13]): 57%
- Inhibition of Factor 11 protein relative to the PBS control (Factor 11 protein; day 78, chronic, lower dose regimen (*)): 42%
- Inhibition of Factor 11 protein relative to the PBS control (Factor 11 protein; [14]): 63%
- Inhibition of Factor 11 protein relative to the PBS control (Factor 11 protein; day 85, chronic, lower dose regimen (*)): 34%
- Inhibition of Factor 11 protein relative to the PBS control (Factor 11 protein; [15]): 64%
- Inhibition of Factor 11 protein relative to the PBS control (Factor 11 protein; day −5, chronic, lower dose regimen (*)): 1%
- Inhibition of Factor 11 protein relative to the PBS control (Factor 11 protein; [16]): 0%
- Inhibition of Factor 11 protein relative to the PBS control (Factor 11 protein; day −14, chronic, lower dose regimen (*)): 0%
- Inhibition of Factor 11 protein relative to the PBS control (Factor 11 protein; [17]): 0%
- ALT [3]: 90 IU/L
- AST [3]: 115 IU/L
- Albumin [3]: 3.2
- Bilirubin [3]: 0.20 mg/dL
- ALT [4, 18]: 42 IU/L
- AST [4, 18]: 39 IU/L
- Bilirubin [4, 18]: 0.19 mg/dL
- ALT [4, 6]: 41 IU/L
- AST [4, 6]: 45 IU/L
- Bilirubin [4, 6]: 0.13 mg/dL
- ALT [4, 19]: 41 IU/L
- AST [4, 19]: 40 IU/L
- Bilirubin [4, 19]: 0.18 mg/dL
- ALT [4, 9]: 43 IU/L
- AST [4, 9]: 50 IU/L
- Bilirubin [4, 9]: 0.13 mg/dL
- ALT [4, 12]: 60 IU/L
- AST [4, 12]: 56 IU/L
- Bilirubin [4, 12]: 0.14 mg/dL
- ALT [4, 15]: 75 IU/L
- AST [4, 15]: 82. IU/L
- Bilirubin [4, 15]: 0.14 mg/dL
- ALT [4, 20]: 80 IU/L
- AST [4, 20]: 100 IU/L
- Bilirubin [4, 20]: 0.28 mg/dL
- ALT [4, 17]: 54 IU/L
- AST [4, 17]: 81 IU/L
- Bilirubin [4, 17]: 0.21 mg/dL

Substance: ISIS 416858: MOE gapmer, nucleobases 1275 to 1318 of SEQ ID NO: 1 (Table 8) (antisense ACGGCATTGGTGCACAGTTT; MOE gapmer, wing and gap sizes not given here)
- HCT [1]: 50%
- Lymphocyte [1]: 5480 cells/μL
- Neutrophil [1]: 2229 cells/μL
- Platelets [1]: 782 10^3/μL
- RBC [1]: 9 10^6/μL
- WBC [1]: 8 10^3/μL
- hemoglobin [1]: 14 g/dL
- monocytes [1]: 248 cells/μL
- BUN [2]: 23 mg/dL
- Factor 11 protein levels in plasma (Factor 11 protein; escalating dose regimen): time-dependent decrease in protein levels
- Inhibition of Factor 11 protein relative to the PBS control (Factor 11 protein; day 8, escalating dose regimen): 6%
- Inhibition of Factor 11 protein relative to the PBS control (Factor 11 protein; [5]): 16%
- Inhibition of Factor 11 protein relative to the PBS control (Factor 11 protein; [6]): 23%
- Inhibition of Factor 11 protein relative to the PBS control (Factor 11 protein; [7]): 28%
- Inhibition of Factor 11 protein relative to the PBS control (Factor 11 protein; [8]): 35%
- Inhibition of Factor 11 protein relative to the PBS control (Factor 11 protein; [9]): 39%
- Inhibition of Factor 11 protein relative to the PBS control (Factor 11 protein; [10]): 49%
- Inhibition of Factor 11 protein relative to the PBS control (Factor 11 protein; [11]): 60%
- Inhibition of Factor 11 protein relative to the PBS control (Factor 11 protein; [12]): 68%
- Inhibition of Factor 11 protein relative to the PBS control (Factor 11 protein; [13]): 71%
- Inhibition of Factor 11 protein relative to the PBS control (Factor 11 protein; [14]): 73%
- Inhibition of Factor 11 protein relative to the PBS control (Factor 11 protein; [15]): 78%
- Inhibition of Factor 11 protein relative to the PBS control (Factor 11 protein; [16]): 0%
- Inhibition of Factor 11 protein relative to the PBS control (Factor 11 protein; [17]): 0%
- ALT [4, 6]: 28 IU/L
- AST [4, 6]: 38 IU/L
- Bilirubin [4, 6]: 0.18 mg/dL
- ALT [4, 9]: 36 IU/L
- AST [4, 9]: 39 IU/L
- Bilirubin [4, 9]: 0.14 mg/dL
- ALT [4, 12]: 47 IU/L
- AST [4, 12]: 50 IU/L
- Bilirubin [4, 12]: 0.12 mg/dL
- ALT [4, 15]: 50 IU/L
- AST [4, 15]: 49 IU/L
- Bilirubin [4, 15]: 0.14 mg/dL
- ALT [4, 17]: 47 IU/L
- AST [4, 17]: 58 IU/L
- Bilirubin [4, 17]: 0.27 mg/dL

Substance: ISIS 416864: MOE gapmer, nucleobases 1275 to 1318 of SEQ ID NO: 1 (Table 8) (antisense GGCAGCGGACGGCATTGGTG; MOE gapmer, wing and gap sizes not given here)
- HCT [1]: 52%
- Lymphocyte [1]: 3921 cells/μL
- Neutrophil [1]: 973 cells/μL
- Platelets [1]: 750 10^3/μL
- RBC [1]: 10 10^6/μL
- WBC [1]: 5 10^3/μL
- hemoglobin [1]: 15 g/dL
- monocytes [1]: 141 cells/μL
- BUN [2]: 24 mg/dL
- Inhibition of Factor 11 protein relative to the PBS control (Factor 11 protein; day 8, escalating dose regimen): 7%
- Inhibition of Factor 11 protein relative to the PBS control (Factor 11 protein; [5]): 9%
- Inhibition of Factor 11 protein relative to the PBS control (Factor 11 protein; [6]): 7%
- Inhibition of Factor 11 protein relative to the PBS control (Factor 11 protein; [7]): 10%
- Inhibition of Factor 11 protein relative to the PBS control (Factor 11 protein; [8]): 9%
- Inhibition of Factor 11 protein relative to the PBS control (Factor 11 protein; [9]): 9%
- Inhibition of Factor 11 protein relative to the PBS control (Factor 11 protein; [10]): 10%
- Inhibition of Factor 11 protein relative to the PBS control (Factor 11 protein; [11]): 7%
- Inhibition of Factor 11 protein relative to the PBS control (Factor 11 protein; [12]): 5%
- Inhibition of Factor 11 protein relative to the PBS control (Factor 11 protein; [13]): 10%
- Inhibition of Factor 11 protein relative to the PBS control (Factor 11 protein; [14]): 9%
- Inhibition of Factor 11 protein relative to the PBS control (Factor 11 protein; [15]): 8%
- Inhibition of Factor 11 protein relative to the PBS control (Factor 11 protein; [16]): 5%
- Inhibition of Factor 11 protein relative to the PBS control (Factor 11 protein; [17]): 0%
- ALT [4, 6]: 37 IU/L
- AST [4, 6]: 41 IU/L
- Bilirubin [4, 6]: 0.22 mg/dL
- ALT [4, 9]: 36 IU/L
- AST [4, 9]: 40 IU/L
- Bilirubin [4, 9]: 0.17 mg/dL
- ALT [4, 12]: 43 IU/L
- AST [4, 12]: 46 IU/L
- Bilirubin [4, 12]: 0.16 mg/dL
- ALT [4, 15]: 43 IU/L
- AST [4, 15]: 56 IU/L
- Bilirubin [4, 15]: 0.17 mg/dL
- ALT [4, 17]: 54 IU/L
- AST [4, 17]: 76 IU/L
- Bilirubin [4, 17]: 0.31 mg/dL
